Data reported in patent US20120128646A1, “METHODS AND COMPOSITIONS FOR THE TREATMENT OF AUTOIMMUNE DISEASE” (priority 2009, published 2012).
“Also recorded” adds a separate entry of the source.

How the values were obtained:
T cell clone BDC-10.1 [1] = experiment: IFNγ production by T cell clone in antigen assay (ELISA); type: cell-based, NOD mouse; details: peptide or preparation as antigen
Excerpt: (§1) The T cell clones are maintained in culture by periodic re-stimulation with irradiated NOD splenocytes and islet cells or β-membrane. To assay for antigen, resting responder T cells (i.e., for example, the cells at the end of the two-week restimulation period) are co-cultured for 24 hr with elicited peritoneal macrophages (PEC) as APC and either a test sample or control antigen. Control antigen will be in the form of islet cells or the whole-cell membrane fraction (i.e., for example, a β-membrane fraction). As described above, unlysed β-membrane is stored in aliquots at −80° C. for this purpose. Negative controls include responder cells alone and responders plus APC.
(§2) At the end of the culture period, supernatants are collected from the cultures and IFNγ production is measured by ELISA. Wells positive for IFNγ are indicative of T cells responding to antigen; the amount of cytokine produced is calculated from a standard curve and is directly proportional to the amount of antigen present.
(§3) Antigenicity of islet cells, cellular and biochemical fractions, peptides, or insect cells expressing IA^g7-peptide constructs, was assessed through responses of T cell clones or hybridomas made by fusing T cell clones to the TCR^− version of T cell lymphoma, BW5147. White et al., “Two better cell lines for making hybridomas expressing specific T cell receptors” J Immunol 143:1822-1825 (1989). T cell clone cultures typically contained 2×10^4 responder T cells, 2.5×10^4 NOD peritoneal exudate cells (PEC) as APC, and antigen (SEC/IEX fractions, peptides, islet cells); all assays were performed with β-Mem as a positive control. IFNγ was measured by ELISA of culture supernatants. For cultures with T cell hybridomas, antigen/MHC activation was assessed by IL-2 production measured by a bioassay using the HT-2 T cell line. Walker et al., “Antigenspecific. I region-restricted interactions in vitro between tumor cell lines and T cell hybridomas” J Immunol 128:2164-2169 (1982). Synthetic peptides were either produced in the Molecular Resource Center at National Jewish Health or obtained from CHI Scientific, Maynard, Mass.

T cell clone BDC-2.5 [2] = experiment: as above; type: cell-based, NOD mouse; details: peptide or preparation as antigen
Excerpt: as §1, §2, §3

T cell clone BDC-5.10.3 = experiment: as above; type: cell-based, NOD mouse; details: peptide or preparation as antigen
Excerpt: as §1, §2, §3

soluble IA^g7 = experiment: Peptide binding to IA^g7: competition with biotinylated HEL peptide; design: species or system NOD mouse; details: competition with biotinylated pHEL 11 μM, pH 5.6, overnight
Excerpt: FIG. 15B: A series of ChgA peptides tested for their ability to compete with a biotinylated HEL peptide for binding to soluble IA^g7. pS3-positive control peptide. IE^k moth cytochrome c-negative control peptide. N=2. Y axis: Percent of IA^g7-bound biotinylated HEL peptide as compared to IE^k. X axis: Log concentration of inhibitor peptide.
In order to confirm the unique binding register of the WE14 peptide, a series of peptides comprising N-terminal extensions and/or C-terminal deletions of WE14 were evaluated for their ability to stimulate the BDC-2.5 T cell clone (FIG. 6a) or to bind to IA^g7. See, FIG. 15A. […] See, FIG. 15B. Further, a pS3 mimotope was used as the positive control peptide and an irrelevant peptide from moth cytochrome c, pMCC, was the negative control peptide. The data were analyzed to determine the stimulatory or binding capacity of the peptides relative to WE14. See, FIG. 15C.
Soluble IA^g7 with covalently attached pHEL was treated with thrombin to cleave the linker attaching the peptide to the IA^g7 β chain. Kozono et al., “Production of soluble MHC class II proteins with covalently bound single peptides” Nature 369:151-154 (1994). Samples (0.5 μg) were incubated with a soluble biotinylated version of pHEL, Biotin-GGGMKRHGLDNYRGYSL (SEQ ID NO: 56) (11 μM), either alone or in the presence of various concentrations of potential competitors peptides, in 15 μL of pH 5.6 buffer overnight at room temperature. The sample was diluted to 100 μL of PBS in a well of a 96-well ELISA plate coated with an anti-IA^g7 monoclonal antibody, OX-6 (BD Pharmaceuticals). The captured IA^g7 was washed several times with PBS and the bound bio-pHEL detected with alkaline phosphatase coupled Extravadin (Sigma) and […].

T cell clone BDC-10.1 [3] = details: Yoshida et al 2002; cited from earlier work
T cell clone BDC-2.5 [4] = details: Yoshida et al 2002; cited from earlier work
T cell clone PD-12.4.4 = experiment: IFNγ production by insulin-reactive control T cell clone (ELISA); type: cell-based, NOD mouse; details: negative control clone
Excerpt: as §1, §2
Antigenicity of islet cells, cellular and biochemical fractions, peptides, or insect cells expressing IA^g7-peptide constructs, was assessed through responses of T cell clones or hybridomas made by fusing T cell clones to the TCR^− version of T cell lymphoma, BW5147. […] IFNγ was measured by ELISA of culture supernatants. […]

[5] = tested on: BDC-10.1 T cell hybridoma; experiment: IL-2 production by T cell hybridoma stimulated with ICAM/B7 insect cells displaying IA^g7-peptide; type: cell-based, mouse; details: covalent IA^g7-peptide complex on B7/ICAM insect cells; 24 hrs
Procedure: (§4) FIG. 13C: Three BDC T cell hybridomas stimulated in culture either with: i) immobilized H597 anti-TCR Cβ Mab; ii) ICAM/B7 expressing SF9 cells infected with virus encoding IA^g7 with a HEL peptide; or ii) ICAM/B7 expressing SF9 cells infected with virus encoding IA^g7 with pS3. IL-2 production was assayed after 24 hrs.
(§5) T cell hybridomas bearing TCR from either the BCD-2.5, BDC-10.1 or BDC-5.10.3 T cell clones were tested for their ability to recognize the covalent IA^g7-p53 complex using B7/ICAM-expressing insect cells as artificial APCs. See, FIG. 13C; Crawford et al., “Mimotopes for alloreactive and conventional T cells in a peptide-MHC display library” PloS Biol 2:E90 (2004); and Crawford et al., “Use of baculovirus MHC/peptide display libraries to characterize T-cell receptor ligands” Immunol Rev 210: 156-170 (2006).
as §3

BDC-2.5 T cell hybridoma = experiment: as above; type: cell-based, mouse; details: covalent IA^g7-peptide complex on B7/ICAM insect cells; 24 hrs
Procedure: as §4, §5, §3

[6] = tested on: BDC-5.10.3 T cell hybridoma; experiment: as above; type: cell-based, mouse; details: covalent IA^g7-peptide complex on B7/ICAM insect cells; 24 hrs
Procedure: as §4, §5, §3

BDC-2.5 TCR = experiment: Binding of fluorescent multimeric soluble BDC-2.5 TCR to IA^g7-peptide on insect cells (flow cytometry); design: species or system mouse; details: oligomerized
Excerpt: FIG. 13B: Use of a fluorescent, oligomerized, soluble BDC-2.5 TCR to enrich from the library a virus encoding an IA^g7-mimotope (i.e., for example, pS3) that forms a strong ligand with a BDC-2.5 TCR.
The amino acids at p1, p2, p3, p5, p7 and p8 were fully randomized to all 20 amino acids. See, FIG. 13A. Insect cells were infected with the library at a multiplicity of infection of <1 such that most infected cells expressed a single member of the library. The few infected cells expressing an IA^g7-peptide combination capable of binding a fluorescent, soluble, multimeric version of BDC-2.5 TCR were isolated using flow cytometry. See, FIG. 13B, panel 1). These cells were used to create a new enriched viral stock. […]
The PCR DNA fragment encoding the library was cloned directly into baculovirus DNA already encoding the IA^g7 genes, attached via a linker to the N-terminus of the β chain. […] Insect cells infected with the library at a multiplicity of infection of <1 were analyzed by flow cytometry for cells that expressed IA^g7 (OX-6 Mab, BD-Pharmingen) and also bound a multivalent TCR reagent consisting of the soluble BDC-2.5 TCR captured by a biotinylated anti-Cα Mab, ADO-304, bound to Alexafluor-647 labeled streptavidin (Molecular Probes). […] The peptide sequence encoded in the positive clones was determined.

[7] = molecular target: WE14 peptide (…), natural cleavage product of chromogranin A (mouse); experiment: cell-based or functional assay

Substance: EDKRWSRMD [ChgA aa354-362; ED9 = WD5 extended with EDKR]
- Stimulation of T cell clone BDC-10.1 (IFNγ response), result in words (T cell clone BDC-10.1 [1]): did not stimulate
- Stimulation of T cell clone BDC-2.5 (IFNγ response), result in words (T cell clone BDC-2.5 [2]): did not stimulate
- Stimulation of T cell clone BDC-2.5 (IFNγ response), result in words (T cell clone BDC-2.5 [2]; listed as ED9): failed to stimulate
- Stimulation of T cell clone BDC-5.10.3 (IFNγ response), result in words (T cell clone BDC-5.10.3): did not stimulate
- IA^g7 binding, result in words (soluble IA^g7): did not bind

Substance: HIPIWARMD [peptide mimotope of Yoshida et al 2002]
- Mimotope activation of BDC-10.1 (T cell clone BDC-10.1 [3]): activate

Substance: HRPIWARMD [peptide mimotope of Yoshida et al 2002]
- Mimotope activation of BDC-2.5 (T cell clone BDC-2.5 [4]): highly stimulatory; also recorded: activate

Substance: RLGLWVRME [mimotope from baculovirus IA^g7-peptide library]
- Stimulation of T cell clone BDC-10.1 (IFNγ response), result in words (T cell clone BDC-10.1 [1]): strongly stimulated
- Stimulation of T cell clone BDC-10.1 (IFNγ response), result in words (T cell clone BDC-10.1 [1]; listed as pS3): maximally
- Stimulation of T cell clone BDC-2.5 (IFNγ response), result in words (T cell clone BDC-2.5 [2]): strongly stimulated
- Stimulation of T cell clone BDC-2.5 (IFNγ response), result in words (T cell clone BDC-2.5 [2]; listed as pS3): maximally
- Stimulation of T cell clone BDC-5.10.3 (IFNγ response), result in words (T cell clone BDC-5.10.3): strongly stimulated
- Stimulation of T cell clone BDC-5.10.3 (IFNγ response), result in words (T cell clone BDC-5.10.3; listed as pS3): maximally
- Response of insulin-reactive T cell clone PD-12.4.4 (IFNγ), result in words (T cell clone PD-12.4.4): not
- Activation of BDC-10.1 hybridoma (IL-2 production) [5]: maximally activated
- Activation of BDC-2.5 hybridoma (IL-2 production) (BDC-2.5 T cell hybridoma): maximally activated
- Activation of BDC-5.10.3 hybridoma (IL-2 production) [6]: maximally activated
- IA^g7 binding, result in words (soluble IA^g7): higher affinity
- Binding of IA^g7-mimotope to BDC-2.5 TCR (BDC-2.5 TCR): strong ligand

Substance: SHLVEALYLVCGERG [insulin peptide, reference compound]
- Response of insulin-reactive T cell clone PD-12.4.4 (IFNγ), result in words (T cell clone PD-12.4.4): responded

Substance: TCR of the T cell clone BDC-2.5 (on the T cell clone or on a hybridoma bearing this TCR)
- percentage of maximal IFN-γ response at 100 mg/ml β-membrane (% of maximal IFN-γ response) [7]: 15
- potency in activating the BDC clones, relative to the pS3 mimotope (fold less potent than pS3) [7]: 1000

Substance: TCR of the T cell clone BDC-10.1 (on the T cell clone or on a hybridoma bearing this TCR)
- potency in activating the BDC clones, relative to the pS3 mimotope (fold less potent than pS3) [7]: 1000
